Source: patent US20140066369A1, “Modulators Of The GPR119 Receptor And The Treatment Of Disorders Related Thereto” (ARENA PHARMACEUTICALS, INC., priority 2011, published 2014)

How the values were obtained:
hGPR119 = target: T1, hGPR119 (Homo sapiens, UniProt Q8TDV5); assay: HTRF assay for direct cAMP measurement in CHO-K1 cells stably expressing the GPR119 receptor; format: cell-based
T1 construct: expressed in transfected cells
T1 sequence (Q8TDV5 2-335): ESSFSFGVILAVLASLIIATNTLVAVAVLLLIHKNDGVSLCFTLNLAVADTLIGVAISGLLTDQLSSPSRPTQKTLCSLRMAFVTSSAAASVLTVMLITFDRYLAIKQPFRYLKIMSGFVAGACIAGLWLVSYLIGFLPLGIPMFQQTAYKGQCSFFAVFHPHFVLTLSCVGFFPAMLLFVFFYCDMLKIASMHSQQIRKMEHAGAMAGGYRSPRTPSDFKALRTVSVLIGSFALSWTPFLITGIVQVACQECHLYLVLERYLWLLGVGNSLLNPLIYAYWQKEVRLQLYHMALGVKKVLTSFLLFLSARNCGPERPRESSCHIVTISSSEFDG
Protocol: GPR119 agonists were evaluated in an HTRF® cAMP detection assay (Cisbio, cAMP Dynamic 2 Assay Kit; #62AM4PEJ) according to the manufacturer's instructions using CHO-K1 cells stably expressing the GPR119 receptor. CHO-K1 cells were transduced with a lentiviral vector encoding the nucleotide sequence of GPR119 (NCBI mRNA and protein reference sequences: NM_178471.2 & NP_848566). The N-terminus of the GPR119 nucleotide sequence was modified to replace the first, methionine-coding, codon with a nucleotide sequence coding for a standard, nine amino acid, hemagglutinin tag. Following transduction, cells expressing the GPR119 receptor were isolated and a single clone was isolated following standard dilution-cloning procedures. On the day of the assay, cultured CHO-GPR119 cells were harvested, suspended in assay buffer and plated into 384-well assay plates (PerkinElmer® Proxiplate® #6008280) at a density of 2,000 cells per well. A cAMP standard curve was added to each plate. Test compounds were dissolved in DMSO, serially diluted in DMSO and then diluted in assay buffer before addition to the cells. Test compounds were evaluated in triplicate, using 10-point, 5-fold serial dilutions starting at 10 μM. The final DMSO concentration in the assay was 0.5%. Compounds and cells were incubated for 1 h at room temperature and then detection reagents were added to each well (cAMP-D2 in cell lysis buffer, followed by europium cryptate-labeled anti-cAMP antibody). Plates were then incubated at room temperature for 1 h prior to reading. Time-resolved fluorescence measurements were collected on PerkinElmer Envision™ or BMG Pherastar™ microplate readers. The compound N-(2-fluoro-4-(methylsulfonyl) phenyl)-6-(4-(3-isopropyl-1,2,4-oxadiazol-5-yl)piperidin-1-yl)-5-nitropyrimidin-4-amine was used as a positive control in each runset while assay buffer containing 0.5% DMSO was used as the negative control. The HTRF® assay was used to determine EC50 values for GPR119 agonists.

male 129SVE mice [1] = assay: Oral glucose tolerance test (oGTT), glucose homeostasis in male 129SVE mice; format: in vivo
Protocol: Male 129SVE mice (approximately 8 weeks old) were fasted for 18 h and randomly grouped (n=6) to receive a GPR119 agonist (Compound 17) at 3 or 10 mg/kg (mg/kg body weight). The compound was delivered orally via a gavage needle (p.o., 4 mL/kg) 30 minutes prior to glucose bolus (3 g/kg) (time=−30 min in FIG. 1), with a separate group receiving vehicle (20% hydroxypropyl-beta-cyclodextrin (HPCD)) as control. At time 0 min the glucose bolus was administered. Levels of blood glucose were assessed using a glucometer (One-Touch Ultra™, LifeScan) at time −30 min (prior to compound administration), at 0 min (at time when glucose bolus was given), and at 20, 40, 60, 120 min post glucose bolus. Plasma glucose levels (Table B) and the glucose excursion curve (FIG. 1) are shown. The reduction in the glucose excursion area under the curve (AUC) from −30 to 120 min in GPR119 agonist-treated animals relative to vehicle is shown in FIG. 2.

male 129SVE mice [2] = assay: GIP release in male 129SVE mice (plasma total GIP, ELISA); format: in vivo; conditions: 3 or 30 mg/kg p.o.; blood sample after 45 min
Protocol: Male 129SVE mice (approximately 8 weeks old) were fasted for 18 h and randomly grouped (n=6) to receive a GPR119 agonist (Compound 17) at 3 or 30 mg/kg. Compound 17 was delivered orally via a gavage needle (p.o., 4 mL/kg), and after 45 min a blood sample was collected to determine plasma total GIP levels. A separate control group received vehicle (PET (80% PEG: 10% Ethanol: 10% Tween80™)). Plasma GIP levels were determined using a GIP (total) ELISA kit from Millipore.

CCc1cnc(N2CCN([C@H]3CC[C@H](COc4ccc(S(C)(=O)=O)cc4)CC3)CC2)nc1 [Compound 5, 5-Ethyl-2-(4-((1r,4r)-4-((4-(methylsulfonyl)phenoxy)methyl)cyclohexyl)piperazin-1-yl)pyrimidine]
EC50 (hGPR119): 0.106 µM

CN(C)C(=O)c1ccc(OC[C@H]2CC[C@H](N3CCN(C(=O)OC(C)(C)C)CC3)CC2)c(F)c1 [Compound 38, tert-Butyl 4-((1r,4r)-4-((4-(dimethylcarbamoyl)-2-fluorophenoxy)methyl)cyclohexyl)piperazine-1-carboxylate]
EC50 (hGPR119): 0.219 µM

C[C@@H](OC(=O)N1CCN([C@H]2CC[C@H](COc3ccc(-n4cnnn4)cc3F)CC2)CC1)C(F)(F)F [Compound 44, (R)-1,1,1-Trifluoropropan-2-yl 4-((1r,4R)-4-((2-fluoro-4-(1H-tetrazol-1-yl)phenoxy)methyl)cyclohexyl) piperazine-1-carboxylate]
EC50 (hGPR119): 0.0222 µM

CS(=O)(=O)c1ccc(OC[C@H]2CC[C@H](N3CCN(c4nc(C(F)(F)F)no4)CC3)CC2)c(F)c1 [Compound 64, 5-(4-((1r,4r)-4-((2-Fluoro-4-(methylsulfonyl)phenoxy)methyl)cyclohexyl)piperazin-1-yl)-3-(trifluoromethyl)-1,2,4-oxadiazole]
EC50 (hGPR119): 0.0137 µM

Cc1nc(S(C)(=O)=O)ccc1OC[C@H]1CC[C@H](N2CCN(c3ncc(C(F)(F)F)cn3)C[C@@H]2C)CC1 [Compound 26, 2-((S)-3-Methyl-4-((1r,4S)-4-((2-methyl-6-(methylsulfonyl)pyridin-3-yloxy)methyl)cyclohexyl)piperazin-1-yl)-5-(trifluoromethyl)pyrimidine]
EC50 (hGPR119): 0.6 µM

N#Cc1ccc(OC[C@H]2CC[C@H](N3CCN(c4ncc(C(F)(F)F)cn4)CC3)CC2)cc1 [Compound 23, 4-(((1r,4r)-4-(4-(5-(Trifluoromethyl)pyrimidin-2-yl)piperazin-1-yl)cyclohexyl)methoxy) benzonitrile]
EC50 (hGPR119): 1.38 µM

C[C@@H]1CN(c2ncc(Cl)cn2)CCN1[C@H]1CC[C@H](COc2ccc(S(C)(=O)=O)cc2F)CC1 [Compound 31, 5-Chloro-2-((R)-4-((1r,4R)-4-((2-fluoro-4-(methylsulfonyl)phenoxy)methyl)cyclohexyl)-3-methylpiperazin-1-yl)pyrimidine]
EC50 (hGPR119): 0.0701 µM

CS(=O)(=O)c1ccc(OC[C@H]2CC[C@H](N3CCN(c4ncc(Cl)cn4)CC3)CC2)c(F)c1 [Compound 17, 5-Chloro-2-(4-((1r,4r)-4-((2-fluoro-4-(methylsulfonyl)phenoxy)methyl)cyclohexyl)piperazin-1-yl)pyrimidine]
Plasma Glucose, Mean (male 129SVE mice [1]; 3 mg/kg p.o., 20 min post glucose bolus): 263.5 mg/dL | Plasma Glucose, Mean (male 129SVE mice [1]; 3 mg/kg p.o., 40 min post glucose bolus): 304.8333 mg/dL | Plasma Glucose, Mean (male 129SVE mice [1]; 3 mg/kg p.o., 60 min post glucose bolus): 247.6667 mg/dL | Plasma Glucose, Mean (male 129SVE mice [1]; 3 mg/kg p.o., 120 min post glucose bolus): 166.3333 mg/dL | Plasma Glucose, Mean (male 129SVE mice [1]; 3 mg/kg p.o., time relative to glucose bolus 0 min): 88.0 mg/dL | Plasma Glucose, Mean (male 129SVE mice [1]; 3 mg/kg p.o., time relative to glucose bolus −30 min (prior to compound administration), oGTT, glucose 3 g/kg): 67.33 mg/dL | Plasma Glucose, Mean (male 129SVE mice [1]; 10 mg/kg p.o., 20 min post glucose bolus): 203.8333 mg/dL | Plasma Glucose, Mean (male 129SVE mice [1]; 10 mg/kg p.o., 40 min post glucose bolus): 234.8333 mg/dL | Plasma Glucose, Mean (male 129SVE mice [1]; 10 mg/kg p.o., 60 min post glucose bolus): 186.1667 mg/dL | Plasma Glucose, Mean (male 129SVE mice [1]; 10 mg/kg p.o., 120 min post glucose bolus): 167.3333 mg/dL | Plasma Glucose, Mean (male 129SVE mice [1]; 10 mg/kg p.o., time relative to glucose bolus 0 min): 96.33 mg/dL | Plasma Glucose, Mean (male 129SVE mice [1]; 10 mg/kg p.o., time relative to glucose bolus −30 min (prior to compound administration), oGTT, glucose 3 g/kg): 68.5 mg/dL | Effect on blood glucose after challenge with glucose (male 129SVE mice [1]; 3 or 10 mg/kg p.o., 30 minutes prior to glucose bolus, relative to vehicle): lowered blood glucose | Effect on GIP release (plasma total GIP) (male 129SVE mice [2]): stimulated the release of GIP | EC50 (hGPR119): 0.0518 µM
